One series deals with 4T1 metastatic tumors. Put plainly: MRI of breast cancer metastatic tumor model. The format is in vivo, mouse. As for the experimental part:
In order to construct a metastatic tumor model, 0.2×10^6 4T1 tumor cells undergone 5 days of TGFβ induction were injected through left ventricle of heart, resulting in the spread of tumor cells primarily in brain, lung, liver, lymph node, adrenal gland, chest, and bone marrow. Bioluminescent images of the mice at two weeks were used to monitor the growth of tumors. To assess the targeting capacity of l-ZD2-Cy5, brain and lung were harvested from the mice three hours after 10 nmol l-ZD2-Cy5 were injected. […] Normal brain and lung harvested from normal mice injected with l-ZD2-Cy5 were used as negative controls. Examination of bigger metastatic tumors in lymph nodes and adrenal gland, as shown in FIG. 8B further backed up the targeting efficiency of l-ZD2-Cy5.
Breast cancer metastatic tumor model was imaged at two weeks in order to validate the properties of l-ZD2-Gd(HP-DO3A) in detecting breast cancer micrometastases. In FIG. 9A, a mouse developed with metastatic tumors in lymph nodes, adrenal glands, and chest was imaged in MRI after l-ZD2-Gd(HP-DO3A) injection, in conjugation with BLI validation of tumor positions.

The test system of series [1] is LNCaP prostate tumor xenografts. Put plainly: T1-weighted MRI at 1 Tesla, LNCaP tumors (Example 3). To be noted: 0.1 mmol/kg i.v., up to 30 min. It is filed as in vivo, mouse. As for the experimental part: Male athymic nude mice were purchased from Case Comprehensive Cancer Center (Cleveland, Ohio, USA) and housed in the Animal Core Facility at Case Western Reserve University. All animal experiments were performed in accordance with the animal protocol approved by the CWRU Institutional Animal Care and Use Committee. Athymic nude male mice were subcutaneously injected with 100 μL cell suspension (4×10^7 cells/mL) in matrigel matrix (Corning Bioscience, Corning, N.Y.) to initiate tumors. Mice with tumors of 5-8 mm in diameter were used for imaging studies.
MR images of tumor bearing mice were acquired on an Aspect M3 small animal MRI scanner (1 Tesla). Mice were placed on a holder with the temperature maintained at 37° C., with isoflurane/oxygen mixture supplied to the mice through a nose cone. A thin catheter filled with PBS was connected to a tail vein of the mice. After mice were placed in the coil, a pilot scan was performed to adjust mice to the proper location in the coil. […] Images were exported into DICOM data, which were then processed and analyzed using Matlab (Natick, Mass., USA). The contrast to-noise ratio of tumors in the images were calculated as the difference between tumor mean intensity minus muscle mean intensity, divided by the noise.

Series [2] is described as follows: Relaxivity measurement at 7T in PBS. The format is physicochemical. As for the experimental part: To accurately capture T1 maps, a fast T1 mapping method was developed. This accelerated multi-slice T1-mapping method combines a saturation recovery look-locker sequence and spiral k-space sampling^40. The NMR tubes filled with 3.12-50 μM ZD2-Gd(HP-DO3A) were positioned in a mouse coil and scanned with T1-weighted spin echo sequence, cartesian T1-mapping sequence, and spiral T1-mapping sequence. Axial images were acquired. CNR values from the T1-weighted sequence were calculated from signal from the samples subtracting surrounding water signal, and divided by noise. T1 values of the samples were reconstructed by fitting signal change during the acquisition time to the adapted T1-relaxation curve.

Series [3] is described as follows: In vitro complexation stability in PBS with Cu2+, Ca2+, Zn2+. The format is physicochemical. As for the experimental part:
FIGS. 16(A-B) illustrate in vitro complexation stability and transmetallation analysis of ZD2-Gd(HP-DO3A). A) relative Gd content of ZD2-Gd(HP-DO3A) assayed during 200-min incubation of the agent in phosphate buffer saline (PBS) with and without Cu^2+, Ca^2+, or Zn^2+ ions. […] B) In vitro transmetallation analysis of MultiHance, OmniScan, ProHance (abbreviated as Pro.), and ZD2-Gd(HP-DO3A) (abbreviated as ZD2) in mouse senim.

The subject of series [4] is LNCaP prostate tumor xenografts. The series can be described thus: In vivo T1-weighted MRI at 7T, LNCaP tumors. Details: species or system mouse. The protocol: All MRI experiments were performed on a horizontal 7T Bruker scanner (Bruker Biospin Co., Billerica, Mass.). Imaging experiments were performed when the tumor size reached 5-8 mm in diameter. ZD2-Gd(HP-DO3A) was administered intravenously at the dose of 0.1 mmol/kg after acquiring pre-contrast images. Post-contrast images were obtained at 10 min interval up to 30 min. The axial slices of mouse at the tumor location were acquired using T1-weighted spin echo sequence with the following parameters: field of view (FOV): 3 cm; slice thickness: 1.2 mm; interslice distance: 1.2 mm; TR: 500 ms, TE: 8.1 ms; flip angle: 90°; average: 2; matrix size: 128×128. Contrast-to-noise ratio (CNR) at each time point was calculated by subtraction of the average signal intensity in the tumor and muscle, divided by the standard deviation of image noise. ProHance® (gadoteridol) was used as a control in the imaging experiments.

Another series deals with LNCaP tumors. To be noted: 30 min after injection; before injection 3.21±0.12 s. As for the experimental part: (§1) The following imaging parameters were used for T1 mapping methods: flip angle 10°; echo time 2.09 ms; slice thickness 1 mm; number of average 1; field of view 3×3 cm^2; matrix size 128×128. For each slice, 50 images that covered 5 s of the saturation recovery curve were acquired within an interval of 100 ms. Proton density (Mn) images were acquired with repetition time (TR) of 2 s. Cartesian MRSLL images were also acquired as a validation of spiral MRSLL method. Center 64 k-space lines were acquired in Cartesian method as described previously. Other acquisition parameters were the same as spiral MRSLL.
(§2) Quantitative T1 maps of the tumors were acquired before and at 30 min after the injection of ZD2-Gd(HP-DO3A) and ProHance. […] At the end of the T1 map acquisitions, the mice were sacrificed and the Gd concentration in their tumors was measured by inductively coupled plasma optical emission spectrometry (ICP-OES).

A further series has as its system PC3 tumors. As for the experimental part: as §1, §2
Series [5] can be described thus: Gd biodistribution (ICP-OES). To be noted: 1 week after injection.
Experimental: PC3 tumor-bearing athymic nude mice (sixteen mice) were randomly divided into 4 groups (four mice each group). […] The animals were sacrificed at 2 and 7 days after injection. The blood and tissue samples, including brain, femur, heart, lung, liver, muscle, spleen, and kidney, were collected and weighed. The tissue samples were then cut into small pieces and mixed with ultra-pure nitric acid (1.0 mL, 70%, EMD, Gibbstown, N.J.). The tissue samples were liquefied within 2 weeks and the solution was transferred to a centrifuge tube and centrifuged at 14,000 rpm for 15 min. The supernatant (0.2 mL) was diluted with 9.8 mL deionized water and further centrifuged at 14,000 rpm for 15 min. The Gd(III) concentration in the final supernatant was measured by ICP-OES. […] The Gd content in different organ/tissues was calculated as the percentage of injected dose per gram of organ/tissues (% Dose/g).

“Also recorded” adds a separate entry of the source. Where a SMILES comes first, the peptide text is derived from it. The star is where a group is joined. X1 = O=C(O)CN1CCN(CC(=O)O)CCN(CC(O)Cn2cc(CCCC(=O)*)nn2)CCN(CC(=O)O)CC1; PEG2 = NCCOCCOCCC(=O)O

Regarding `CC(C)[C@H](NC(=O)[C@@H](NC(=O)CCOCCOCCNC(=O)CCCc1cn(CC(O)CN2CCN(CC(=O)O)CCN(CC(=O)O)CCN(CC(=O)O)CC2)nn1)[C@@H](C)O)C(=O)N[C@@H](CCCNC(=N)N)C(=O)N[C@H](C(=O)N[C@@H](CO)C(=O)N[C@@H](C)C(=O)N[C@@H](CC(=O)O)C(=O)O)[C@@H](C)O` (stereo partly drawn) [ZD2-Gd(HP-DO3A)] ({X1-PEG2}-TVRTSAD-OH), the “tumor enhancement in MRI” value in the series with 4T1 metastatic tumors (metastatic tumors at two weeks) is “All five tumors indicated in BLI showed enhancement in MRI”. Moreover, in the series with 4T1 metastatic tumors (tumor vs liver, kidney, bladder, muscle), the “signal enhancement in tumor by CNR measurement” value was “significant higher signal enhancement”. In addition, the “signal enhancement in LNCaP tumors” value in series [1] is listed as “significantly lower signal enhancement; also recorded: did not produce significant contrast enhancement”; in series [4] (0.1 mmol/kg i.v., up to 30 min, 7T), “significantly lower signal enhancement”. This molecule also returned a T1 relaxivity in series [2] of 3.7 mM⁻¹ s⁻¹. In addition, the “relative Gd content” value in series [3] (200-min incubation in PBS with and without Cu2+, Ca2+, or Zn2+) is listed as “No decrease in Gd content”. For the same molecule, in series [3] (24 hours of incubation with Cu2+, Ca2+, Zn2+ in PBS (pH=7.4)), the “transmetallation with endogenous metal ions” value is “no evident transmetallation”. Also, in series [4] (10-30 min post-injection), the “CNR in LNCaP tumors” value is reported as 6-9. Further, in series [4] (during the first 30 min after injection), the “increase of CNR in LNCaP tumors” value is listed as 10-60%. Also, the “CNR in LNCaP tumors relative to PC3 tumors” value in series [4] (first 30 min) is listed as “more than two times lower”. The “tumor T1” value is 2.54 ± 0.13 s in the series on LNCaP tumors and 1.81 ± 0.07 s in the series with PC3 tumors (30 min after injection, before injection 2.75±0.05 s). For the same molecule, in the series with PC3 tumors (among all cases (PC3/LNCaP, ZD2-Gd(HP-DO3A)/ProHance)), the “change in relaxation rate (ΔR1)” value was “highest relaxation rate change”. Besides, in the series with PC3 tumors (mouse, in vivo), the “Gd concentration in PC3 tumors by ICP-OES” value was “significantly higher concentration”. The “tissue retention of Gd” value in series [5] is on record as “same low tissue retention as ProHance”.
